From patent US20090275574A1, “NOVEL COMPOUNDS-300” (ASTRAZENECA AB, priority 2008, published 2009)
pEC50: −log10 of the molar value.

How the values were obtained:
cloned human M4 receptor = molecular target: T1, cloned human M4 receptor (Homo sapiens, UniProt P08173); test: hM4 receptor GTPγS binding; assay type: biochemical; conditions: CHO membranes expressing hM4, [35S]GTPγS binding
T1 construct: purchased Perkin-Elmer RBHM4M; host or cells: Chinese hamster ovary cells (CHO), membranes
T1 sequence (P08173 1-479): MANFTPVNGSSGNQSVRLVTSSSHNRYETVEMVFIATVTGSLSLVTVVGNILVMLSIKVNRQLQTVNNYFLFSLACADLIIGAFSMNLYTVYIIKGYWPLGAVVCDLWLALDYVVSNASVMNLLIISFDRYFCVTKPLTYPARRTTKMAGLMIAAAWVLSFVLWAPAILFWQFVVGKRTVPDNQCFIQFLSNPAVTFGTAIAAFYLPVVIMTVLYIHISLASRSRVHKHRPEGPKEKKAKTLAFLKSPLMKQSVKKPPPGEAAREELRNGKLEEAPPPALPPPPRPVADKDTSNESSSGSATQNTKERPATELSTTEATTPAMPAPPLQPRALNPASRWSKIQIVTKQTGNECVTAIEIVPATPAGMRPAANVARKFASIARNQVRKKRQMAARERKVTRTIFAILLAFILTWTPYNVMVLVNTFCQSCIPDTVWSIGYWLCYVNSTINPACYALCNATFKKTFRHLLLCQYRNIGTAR
Protocol: hM4 Receptor GTPγS Binding Membranes produced from Chinese hamster ovary cells (CHO) expressing the cloned human M4 receptor (human Muscarinic receptor subtype 4, gene bank access NM_000741), are obtained from Perkin-Elmer (RBHM4M). The membranes are thawed at 37° C., passed 3 times through a 23-gauge blunt-end needle, diluted in the GTPγS binding buffer (50 mM Hepes, 20 mM NaOH, 100 mM NaCl, 1 mM EDTA, 5 mM MgCl2, pH 7.4, 100 μM DTT). The EC50, IC50 and Emax of the compounds of the invention are evaluated from 10-point dose-response curves (three fold concentration range) done in 60 μl in 384-well non-specific binding surface plate (Corning). Ten microliters from the dose-response curves plate (5× concentration) are transferred to another 384 well plate containing 25 μl of the following: 10 μg of hM4 membranes, 500 μg of Flashblue beads (Perkin-Elmer) and GDP 40 μM. An additional 15 μl containing 3.3× (60,000 dpm) of GTPγ^35S (0.4 nM final) are added to the wells resulting in a total well volume of 50 μl. Basal and maximal stimulated [^35S]GTPγS binding are determined in absence and presence of 30 μM final of acetylcholine agonist. The membranes/beads mix are pre-incubated for 15 minutes at room temperature with 40 μM GDP prior to distribution in plates (20 μM final). The reversal of acetylcholine-induced stimulation (10 μM final) of [^35S]GTPγS binding is used to assay the antagonist properties (IC50) of the compounds. The plates are incubated for 60 minutes at room temperature then centrifuged at 400 rpm for 5 minutes. The radioactivity (cpm) is counted in a Trilux (Perkin-Elmer). Values of EC50, IC50 and Emax are obtained using sigmoidal fits of a non-linear curve-fitting program (XLfit version 4.2.2 Excel add-in version 4.2.2 build 18 math 1Q version 2.1.2 build 18) of percent stimulated [^35S]GTPγS binding vs. log(molar ligand). All pEC50 and pIC50 values are reported as arithmetic means±standard error of mean of ‘n’ independent experiments.

[1] = molecular target: T2, hM1 (human Muscarinic receptor subtype 1) (Homo sapiens, UniProt P11229); test: Human M1 calcium mobilization FLIPR assay; assay type: cell-based; conditions: hM1 expressed in CHO cells, intracellular Ca2+ release (FLIPR)
T2 construct: expressed in transfected cells; host or cells: CHO cells (ATCC)
T2 sequence (P11229 1-460): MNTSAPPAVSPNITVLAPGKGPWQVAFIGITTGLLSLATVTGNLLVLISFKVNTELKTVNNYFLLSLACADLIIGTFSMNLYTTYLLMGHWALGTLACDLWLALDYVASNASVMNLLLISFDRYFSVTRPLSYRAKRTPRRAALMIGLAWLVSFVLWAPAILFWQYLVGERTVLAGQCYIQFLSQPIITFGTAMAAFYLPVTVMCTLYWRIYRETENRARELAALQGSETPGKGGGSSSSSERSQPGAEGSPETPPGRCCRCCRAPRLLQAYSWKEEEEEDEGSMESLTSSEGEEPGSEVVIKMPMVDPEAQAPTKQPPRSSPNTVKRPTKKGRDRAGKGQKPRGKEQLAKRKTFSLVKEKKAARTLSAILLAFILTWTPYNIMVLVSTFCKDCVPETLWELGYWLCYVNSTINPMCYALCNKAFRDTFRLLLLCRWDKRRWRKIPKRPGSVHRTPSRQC
Protocol: Human M1, rat M1, Human M3 and Human M5 Calcium Mobilization FLIPR™ Assay The compound activity in the present invention (EC50 or IC50) is measured using a 384 plate-based imaging assay that monitors drug induced intracellular Ca^2+ release in whole cells. Activation of hM1 (human Muscarinic receptor subtype 1, gene bank access NM_000738), rM1 (rat Muscarinic receptor subtype 1, gene bank access NM_080773), hM3 (human Muscarinic receptor subtype 3, gene bank access NM_000740NM_000740) and hM5 (human Muscarinic receptor subtype 5, gene bank access NM_0121258), receptors expressed in CHO cells (Chinese hamster ovary cells, ATCC) is quantified in a Molecular Devices FLIPR IITM instrument as an increase in fluorescent signal. Inhibition of hM3 and hM5 by compounds is determined by the decrease in fluorescent signal in response to 2 nM acetylcholine activation. […] Prior to experiment, the cell culture medium is removed from the plates by inversion. […] Plates are incubated at 37° C. for 60 minutes prior to start the experiment. The incubation is terminated by washing the cells four times in assay buffer, leaving a residual 25 μl buffer per well. Cell plates are then transferred to the FLIPR, ready for compound additions. The day of experiment, acetylcholine and compounds are diluted in assay buffer in three-fold concentration range (10 points serial dilution) for addition by FLIPR instrument. For all calcium assays, a baseline reading is taken for 10 seconds followed by the addition of 12.5 μl of compounds, resulting in a total well volume of 37.5 μl. Data is collected every second for 60 pictures and then every 6 seconds for 20 pictures prior to the addition of agonist. For hM3 and hM5, before agonist addition, a second baseline reading is taken for 10 seconds followed by the addition of 12.5 μl of agonist or buffer, producing a final volume of 50 μl. After agonist stimulation, the FLIPR continues to collect data every second for 60 pictures and then every 6 seconds for 20 pictures. The fluorescence emission is read using filter 1 (emission 510-570 nm) by the FLIPR on board CCD camera. Calcium mobilization output data are calculated as the maximal relative fluorescence unit (RFU) minus the minimal value for both compound and agonist reading frame (except for hM1 and rM1 using only the maximal RFU). Data are analyzed using sigmoidal fits of a non-linear curve-fitting program (XLfit version 4.2.2 Excel add-in version 4.2.2 build 18 math 1Q version 2.1.2 build 18). All pEC50 and pIC50 values are reported as arithmetic means±standard error of mean of ‘n’ independent experiments.

Compound	pEC50 (cloned human M4 receptor)	pEC50 [1]
CC(C)OCC1CCC(N2CCC(N3C(=O)CO[C@H]4CCCC[C@@H]43)CC2)CC1 (mixture of isomers) [Example 15, (4aS,8aS)-4-(1-(4-(isopropoxymethyl)cyclohexyl)piperidin-4-yl)hexahydro-2H-benzo[b][1,4]oxazin-3(4H)-one]	< 4.48	8.00
CCCOCC1CCC(N2CCC(N3C(=O)NC[C@H]4CCCC[C@@H]43)CC2)CC1 (single isomer, unassigned) [Example 01]	< 4.28	7.68
CCCOCC1CCC(N2CCC(N3C(=O)NC[C@H]4CCCC[C@@H]43)CC2)CC1 (single isomer, unassigned) [Example 02]	6.28	8.70
CCOCC1CCC(N2CCC(N3C(=O)CO[C@H]4CCCC[C@@H]43)CC2)CC1 (single isomer, unassigned) [Example 13]	< 4.63	7.77
CCOCC1CCC(N2CCC(N3C(=O)CO[C@H]4CCCC[C@@H]43)CC2)CC1 (single isomer, unassigned) [Example 14]	5.32	8.00
CC(C)OCC1CCC(N2CCC(N3C(=O)CO[C@H]4CCCC[C@@H]43)CC2)CC1 (single isomer, unassigned) [Example 18]	< 4.60	8.11
O=C1CO[C@H]2CCCC[C@@H]2N1C1CCN(C2CCC(COCC3CC3)CC2)CC1 (single isomer, unassigned) [Example 22]	< 4.05	8.25
O=C1CO[C@H]2CCCC[C@@H]2N1C1CCN(C2CCC(COCCF)CC2)CC1 (single isomer, unassigned) [Example 24]	< 4.05	7.39
O=C1CO[C@H]2CCCC[C@@H]2N1C1CCN(C2CCC(COCCF)CC2)CC1 (single isomer, unassigned) [Example 25]	< 4.58	8.02
CC(C)OCC1CCC(N2CCC(N3C(=O)CO[C@H]4CCC(F)(F)C[C@@H]43)CC2)CC1 (single isomer, unassigned) [Example 37]	< 4.05	7.47
O=C1CO[C@H]2CCCC[C@@H]2N1C1CCN(C2CC(COCC3CCC3)C2)CC1 (single isomer, unassigned) [Example 40]	< 4.05	7.24
CCOCC1CCC(N2CCC(N3C(=O)CO[C@H]4CCCC[C@@H]43)CC2)C1 (single isomer, unassigned) [Example 44]	5.27	9.01
O=C1COC2CCCC2N1C1CCN([C@H]2CC[C@@H](COCC3CC3)CC2)CC1 (single isomer, unassigned) [Example 48]	< 4.93	7.82
O=C1NC[C@H]2CCCC[C@@H]2N1C1CCN(C2CCC(COCC(F)F)CC2)CC1 (single isomer, unassigned) [Example 51]	< 4.05	7.64

Now from value to compound:

pEC50 (cloned human M4 receptor)	pEC50 [1]	Compound
6.01	8.28	CCOCC1CCC(N2CCC(N3C(=O)NC[C@H]4CCCC[C@@H]43)CC2)CC1 (mixture of isomers) [Example 08, (4aR,8aS)-1-(1-(4-(ethoxymethyl)cyclohexyl)piperidin-4-yl)octahydroquinazolin-2(1H)-one]
6.17	8.49	CC(C)OCC1CCC(N2CCC(N3C(=O)NC[C@H]4CCCC[C@@H]43)CC2)CC1 (single isomer, unassigned) [Example 04]
< 4.05	7.39	CCCOC1CCC(N2CCC(N3C(=O)NC[C@H]4CCCC[C@@H]43)CC2)CC1 (single isomer, unassigned) [Example 06]
< 4.05	7.06	CCCOC1CCC(N2CCC(N3C(=O)CO[C@H]4CCCC[C@@H]43)CC2)CC1 (single isomer, unassigned) [Example 17]
< 4.36	7.85	CC(C)OCC1CCC(N2CCC(N3C(=O)CO[C@H]4CCCC[C@@H]43)CC2)CC1 (single isomer, unassigned) [Example 19]
< 4.05	7.42	O=C1CO[C@H]2CCCC[C@@H]2N1C1CCN(C2CCC(COCC3CC3)CC2)CC1 (single isomer, unassigned) [Example 23]
< 4.05	7.77	O=C1CO[C@H]2CCCC[C@@H]2N1C1CCN(C2CCC(COCC(F)F)CC2)CC1 (single isomer, unassigned) [Example 26]
< 4.05	8.38	O=C1CO[C@H]2CCCC[C@@H]2N1C1CCN(C2CCC(COCC(F)F)CC2)CC1 (single isomer, unassigned) [Example 27]
< 4.05	7.74	CC(C)OCC1CCC(N2CCC(N3C(=O)CO[C@H]4CCC(F)(F)C[C@@H]43)CC2)CC1 (single isomer, unassigned) [Example 38]
< 4.05	7.48	CCOCC1CC(N2CCC(N3C(=O)CO[C@H]4CCCC[C@@H]43)CC2)C1 (single isomer, unassigned) [Example 39]
< 4.83	7.32	CCOCC1CCC(N2CCC(N3C(=O)CO[C@H]4CCCC[C@@H]43)CC2)C1 (single isomer, unassigned) [Example 45]
5.37	8.38	CCOC[C@H]1CC[C@@H](N2CCC(N3C(=O)CO[C@H]4CCCC[C@@H]43)CC2)C1 [Example 42, (4aS,8aS)-4-(1-((1R,3S)-3-(ethoxymethyl)cyclopentyl)piperidin-4-yl)hexahydro-2H-benzo[b][1,4]oxazin-3(4H)-one]
